Patent publication US20150098963A1, “METHODS AND COMPOSITIONS FOR IMPROVING THE APPEARANCE OF SKIN” (priority 2013, published 2015)
Ends that are not written are not given here.

Test system: SIRT6
Assay: SIRT6 expression by immunohistochemistry in Normal Human Epidermal Keratinocytes
Assay type: cell-based
Conditions: 1% and 3% of a 50 ppm peptide solution, 48 h treatment, FIG. 2
Description: SIRT6 is a member of the conserved family of sirtuin proteins which are associated with metabolism and longevity. SIRT6 is a histone 3, lysine 9 (H3K9) deacetylase and is primarily involved in DNA repair and telomere stability. The peptide of (SEQ ID No. 5) Gly-Ala-Gly-Val-Ser-Ala-Glu-NH2 was tested for Sirt6 stimulating activity as follows.
• Normal Human Epidermal Keratinocytes p3 • EpiLife Medium (Invitrogen) • Human Keratinocyte Growth Supplement (Invitrogen) • 1× Dulbecco's Phosphate Buffered Saline (DPBS) made from: • 10× DPBS (Mediatech) • Distilled, Deionized Water • Peptide of SEQ ID No. 5 • Rabbit polyclonal antibody to Sirt6 (Abcam) • Alexa Fluor 488 donkey anti-rabbit IgG (H+L) (Invitrogen) • Triton-X 100 (Fisher) • Albumin, Bovine (Sigma) • Vectashield with 4′,6-diamidino-2-phenylindole (DAPI) (Vector)
• 1. Cells were plated into 4 well chamber slides @ 10,000 cells/chamber and incubated at 37° C., 5% CO2 & 95% humidity for 24 hours. • 2. The peptide of SEQ ID No. 5 was prepared as follows: • 2.1. Dissolved 5 mg peptide in 5 ml medium to make a 1000 ppm stock solution. • 2.2. Diluted the stock solution to 50 ppm by combining 400 μl 1000 ppm stock solution with 7.6 ml medium • 2.3. Prepared a 3% of the 50 ppm solution by combining 1.5 ml 50 ppm stock with 48.5 ml medium • 2.4. Prepared a 1% of the 50 ppm solution by combining 0.5 ml 50 ppm stock with […] medium • 3. […]

Gly-Ala-Gly-Val-Ser-Ala-Glu-NH2 (GAGVSAE-NH2) [SEQ ID No. 5]
SIRT6 expression: dose dependent increase in SIRT6 expression
